In patent publication US10201507B2, “Modulators of intracellular chloride concentration for treating fragile X syndrome” (NEUROCHLORE, priority 2012, dated 2019):

Columns and labels:
[1] = test system: hippocampal CA3 pyramidal neurons; assay: DFGABA in offspring at P15 after maternal pretreatment; assay type: in vivo, mouse
Experimental: Mice lacking Fmr1 (referred to as Fmr1^−/−) were bred in our animal facility. […] For all experiments, Fmr1^−/− mice were used with wild-type littermates as a control group. The offspring were used for experiments at E18, P0, P2, P4, P7, P9, P15 and P30. Experiments were carried out on offspring of either sex and in a blind manner at E18 and P0. Hippocampal slices (300-500 μm thick) were prepared using a Microm tissue slicer (International GmbH, Germany) as described previously (Tyzio et al., 2006, 2008). Slices were kept in oxygenated (95% O2/5% CO2) artificial cerebrospinal fluid (ACSF) of the following composition (in mM): […] For recordings, slices were placed into a conventional fully submerged chamber superfused with ACSF at a rate of 2-3 ml/min at room temperature. Patch clamp recordings from visually identified CA3 pyramidal cells in cell-attached configuration were performed using EPC-10 amplifier (HEKA Elektronik Dr. Schulze GmbH, Lambrecht/Pfalz, Germany). Patch pipette solution for recordings of single GABAA channels contained (in mM): NaCl 120, KCl 5, TEA-Cl 20, 4-aminopyridine 5, CaCl2 0.1, MgCl2 10, glucose 10, Hepes-NaOH 10 buffered to pH 7.2-7.3 and GABA 2 μM. Analysis of currents through single channels and current-voltage relationships were performed using Clampfit 9.2 (Axon Instruments, Union City, Calif.). […]

[2] = test system: hippocampal slices; assay: Extracellular field potentials / spike frequency in hippocampal slices at P15 on isoguvacine; assay type: cell-based, mouse
From the text: Recording were made in the hippocampal slices using tungsten wire electrodes (diameter: 50 μm, California Fine Wire, Grover Beach, Calif.) and a low-noise multichannel DAM-8A amplifiers (WPI, GB; […]; gain: ×1000). The signals were digitized using an analogue-to-digital converter (Digidata 1440A, Axon Instruments, USA). pCLAMP 10.1, Clampfit 10.1 (Axon Instruments, USA), MiniAnalysis 6.03 (Synaptosoft, Decatur, Calif.) and Origin 7.5 (Microcal Software, USA) programs were used for the acquisition and analysis of the synaptic activities. Sampling interval per signal was 100 microseconds (10 kHz).
To test whether depolarizing actions of GABA were associated with neuronal excitation, the effect of the GABAA receptor agonist isoguvacine was tested. […] To test whether maternal treatment with bumetanide before delivery switches the action of GABA from excitatory to inhibitory in offsprings at P15, pregnant females were treated orally 1 day before delivery with bumetanide (2-2.5 mg/kg in drinking water) and juvenile offspring neurons recorded at P15. […] Therefore, excitatory actions of GABA during delivery produce long term deleterious effects on electrophysiological parameters of FXS juvenile neurons. In FXS mice, GABAergic inputs are excitatory and contribute to hyperexcitability of the network. Bumetanide decreases [Cl^−]i and consequently reduces contribution of excitatory GABAergic inputs in the overall network activity.

[3] = test system: hippocampal CA3 pyramidal neurons; assay: Whole-cell recordings of spontaneous excitatory postsynaptic currents (sEPSCs) at P15 after maternal pretreatment; assay type: in vivo, mouse; details: FXS offspring P15, maternal pretreatment, −70 mV
Experimental: Standard whole-cell recordings were performed in coronal neocortical rat or mouse brain slices at room temperature (20-22° C.) from the soma of hippocampal CA3 neurons using an EPC-10 (HEKA Elektronik, Germany) amplifier and filtered at 3-10 kHz. The internal solution contained (in mM): 130 K-gluconate, 10 Na-gluconate, 4 NaCl, 4 MgATP, 4 phosphocreatine, 10 HEPES, and 0.3 GTP (pH 7.3 with KOH). Biocytin (final concentration 0.3-0.5%) was added to the pipette solution to label the neurons from which recordings were obtained. Neurons were visualized by using infrared DIC video microscopy. Spontaneous postsynaptic currents were recorded for […] at the reversal potentials for GABAergic currents (-70 mV). […] Stored data were analyzed using the Mini Analysis 6.0.3 (Synaptosoft Inc., […].) and Origin (MicroCal, Northampton, Mass.) software. […] Data are expressed as mean±S.E.M. To test whether depolarizing actions of GABA were associated with neuronal excitation, the effect of the GABAA receptor agonist isoguvacine was tested. […] To test whether maternal treatment with bumetanide before delivery switches the action of GABA from excitatory to inhibitory in offsprings at P15, pregnant females were treated orally 1 day before delivery with bumetanide (2-2.5 mg/kg in drinking water) and juvenile offspring neurons recorded at P15. […]

[4] = test system: child with Fragile X syndrome; assay: Clinical case study, side effects, blood tests, blood ions and weight; assay type: in vivo, human
Experimental: This example is a case reports presenting the treatment by bumetanide of a child with Fragile X syndrome.
Starting from the 5 Jan. 2011, the child received bumetanide twice a day (0.5 mg morning and 0.5 mg evening) during three months. Several biological tests were made at baseline (D0) and then after 7 days (D7), one month (M1), two months (M2) and three months (M3) of treatment. They checked orthostatic hypotension, allergy, cramps, asthenia, diarrhea, myalgia, arthralgia, vertigo and nausea. Blood tests included γ-glutamyltransferase, transaminases, alkaline phosphatases, glycemia, uric acid and creatine, in addition to blood Na^+ and K^+.

In the case of `CCCCNc1cc(C(=O)O)cc(S(N)(=O)=O)c1Oc1ccccc1` [bumetanide], the “average DFGABA” value ([1]; P15 FXS mice, maternal pretreatment orally 1 day before delivery, 2-2.5 mg/kg in drinking water) is reported as 1.0±1.1 mV, the “Effect on DFGABA in offsprings (in words)” value ([1]; P15 FXS, maternal pretreatment) is reported as “restored control DFGABA values” and the normalized spike frequency ([2]; FXS mice pretreated with bumetanide, P15, on isoguvacine (10 μM)) is reported as 80.8±8.2%. The “Effect on excitatory actions of isoguvacine (in words)” value ([2]; FXS offspring P15, maternal pretreatment) was “suppressed the excitatory actions”, the “ongoing activity and frequency of glutamatergic sEPSCs (in words)” value [3] was “significantly reduced” and the Weight ([4]; 1 month (M1) of treatment) was 25.1 kg. For the same molecule, the “blood K^+” value ([4]; 1 month (M1) of treatment) was 4.3 mmol/L, the “blood Na^+” value ([4]; 1 month (M1) of treatment) was 139 mmol/L and the Weight ([4]; 2 months (M2) of treatment) was 25.4 kg. For the same molecule, the “blood K^+” value ([4]; 2 months (M2) of treatment) was 3.5 mmol/L, the “blood Na^+” value ([4]; 2 months (M2) of treatment) was 140 mmol/L and the Weight ([4]; 3 months (M3) of treatment) was 25.7 kg. The “blood K^+” value ([4]; 3 months (M3) of treatment) was 3.6 mmol/L, the “blood Na^+” value ([4]; 3 months (M3) of treatment) was 139 mmol/L and the “Natremia (in words)” value ([4]; 3 months of treatment) was “unaltered”. For the same molecule, the “body weight (in words)” value ([4]; 3 months of treatment) was “not altered”, the “blood K^+ (in words)” value ([4]; 3 months of treatment, inferior limit 3.5 mmol/1) was “reduced to a value close to the inferior limit” and the Weight ([4]; 7 days (D7) of treatment) was 25.2 kg. For the same molecule, the “blood K^+” value ([4]; 7 days (D7) of treatment) was 3.6 mmol/L, the “blood Na^+” value ([4]; 7 days (D7) of treatment) was 143 mmol/L and the “side effect in clinical examination” value ([4]; orthostatic hypotension, allergy, cramps, asthenia, diarrhea, myalgia, arthralgia, vertigo, nausea, 3 months) was “no side effect”. For the same molecule, the Conventional blood tests ([4]; γ-glutamyltransferase, transaminases, alkaline phosphatases, glycemia, uric acid, creatine, 3 months) was “unaffected”.
